Measured values reported in the NIST ThermoML archive (doi:10.1016/j.jct.2011.08.016).

Test: xn = mol fraction of the nth substance listed
Details: Liquid, Vibrating tube method

CCCCCCCCCC [decane] + CCCCCCC
Details	mass density [kg/m3]
313.16 K, 1000 kPa, x2 = 0.0531	713.67
313.16 K, 1000 kPa, x2 = 0.2594	706.37
313.16 K, 2000 kPa, x2 = 0.0531	714.44
313.16 K, 2000 kPa, x2 = 0.2594	707.17
313.16 K, 3000 kPa, x2 = 0.0531	715.27
313.16 K, 3000 kPa, x2 = 0.2594	707.97
313.16 K, 4000 kPa, x2 = 0.0531	716.08
313.16 K, 4000 kPa, x2 = 0.2594	708.78
313.16 K, 5000 kPa, x2 = 0.0531	716.94
313.16 K, 5000 kPa, x2 = 0.2594	709.65
313.16 K, 6000 kPa, x2 = 0.0531	717.67
313.16 K, 6000 kPa, x2 = 0.2594	710.5
313.16 K, 7000 kPa, x2 = 0.0531	718.51
313.16 K, 7000 kPa, x2 = 0.2594	711.35
313.16 K, 8000 kPa, x2 = 0.0531	719.34
313.16 K, 8000 kPa, x2 = 0.2594	712.2
313.16 K, 9000 kPa, x2 = 0.0531	720.13
313.16 K, 9000 kPa, x2 = 0.2594	713.05
313.16 K, 10000 kPa, x2 = 0.0531	721
313.16 K, 10000 kPa, x2 = 0.2594	713.88
313.16 K, 10990 kPa, x2 = 0.0531	721.8
313.16 K, 10990 kPa, x2 = 0.2594	714.7
313.16 K, 12000 kPa, x2 = 0.0531	722.62
313.16 K, 12000 kPa, x2 = 0.2594	715.51
313.16 K, 13000 kPa, x2 = 0.0531	723.44
313.16 K, 13000 kPa, x2 = 0.2594	716.3
313.16 K, 14000 kPa, x2 = 0.0531	724.26
313.16 K, 14000 kPa, x2 = 0.2594	717.1
313.16 K, 15000 kPa, x2 = 0.0531	725.05
313.16 K, 15000 kPa, x2 = 0.2594	717.87
313.16 K, 16000 kPa, x2 = 0.0531	725.84
313.16 K, 16000 kPa, x2 = 0.2594	718.64
313.16 K, 17000 kPa, x2 = 0.0531	726.57
313.16 K, 17000 kPa, x2 = 0.2594	719.39
313.16 K, 18000 kPa, x2 = 0.0531	727.29
313.16 K, 18000 kPa, x2 = 0.2594	720.16
313.16 K, 19000 kPa, x2 = 0.0531	728.02
313.16 K, 19000 kPa, x2 = 0.2594	720.88
313.16 K, 20000 kPa, x2 = 0.0531	728.71
313.16 K, 20000 kPa, x2 = 0.2594	721.61
313.16 K, 21000 kPa, x2 = 0.0531	729.39
313.16 K, 21000 kPa, x2 = 0.2594	722.32
313.16 K, 22000 kPa, x2 = 0.0531	730.07
313.16 K, 22000 kPa, x2 = 0.2594	723.02
313.16 K, 23000 kPa, x2 = 0.0531	730.67
313.16 K, 23000 kPa, x2 = 0.2594	723.68
313.16 K, 24000 kPa, x2 = 0.0531	731.27
313.16 K, 24000 kPa, x2 = 0.2594	724.32
313.16 K, 25000 kPa, x2 = 0.0531	731.84
313.16 K, 25000 kPa, x2 = 0.2594	724.92
313.17 K, 1000 kPa, x2 = 0.952	671.13
313.17 K, 2000 kPa, x2 = 0.952	672.16
313.17 K, 3000 kPa, x2 = 0.952	673.18
313.17 K, 4000 kPa, x2 = 0.952	674.17
313.17 K, 5000 kPa, x2 = 0.952	675.18
313.17 K, 6000 kPa, x2 = 0.952	676.18
313.17 K, 7000 kPa, x2 = 0.952	677.15
313.17 K, 8000 kPa, x2 = 0.952	678.12
313.17 K, 9000 kPa, x2 = 0.952	679.08
313.17 K, 10000 kPa, x2 = 0.952	680.03
313.17 K, 10990 kPa, x2 = 0.952	680.95
313.17 K, 12000 kPa, x2 = 0.952	681.86
313.17 K, 13000 kPa, x2 = 0.952	682.77
313.17 K, 14000 kPa, x2 = 0.952	683.65
313.17 K, 15000 kPa, x2 = 0.952	684.52
313.17 K, 16000 kPa, x2 = 0.952	685.39
313.17 K, 17000 kPa, x2 = 0.952	686.24
313.17 K, 18000 kPa, x2 = 0.952	687.08
313.17 K, 19000 kPa, x2 = 0.952	687.9
313.17 K, 20000 kPa, x2 = 0.952	688.71
313.17 K, 21000 kPa, x2 = 0.952	689.52
313.17 K, 22000 kPa, x2 = 0.952	690.29
313.17 K, 23000 kPa, x2 = 0.952	691.05
313.17 K, 24000 kPa, x2 = 0.952	691.82
313.17 K, 25000 kPa, x2 = 0.952	692.57
313.18 K, 1000 kPa, x2 = 0.5219	695.19
313.18 K, 1000 kPa, x2 = 0.777	681.87
313.18 K, 2000 kPa, x2 = 0.5219	696.01
313.18 K, 2000 kPa, x2 = 0.777	682.77
313.18 K, 3000 kPa, x2 = 0.5219	696.84
313.18 K, 3000 kPa, x2 = 0.777	683.7
313.18 K, 4000 kPa, x2 = 0.5219	697.74
313.18 K, 4000 kPa, x2 = 0.777	684.64
313.18 K, 5000 kPa, x2 = 0.5219	698.6
313.18 K, 5000 kPa, x2 = 0.777	685.58
313.18 K, 6000 kPa, x2 = 0.5219	699.5
313.18 K, 6000 kPa, x2 = 0.777	686.52
313.18 K, 7000 kPa, x2 = 0.5219	700.44
313.18 K, 7000 kPa, x2 = 0.777	687.47
313.18 K, 8000 kPa, x2 = 0.5219	701.28
313.18 K, 8000 kPa, x2 = 0.777	688.4
313.18 K, 9000 kPa, x2 = 0.5219	702.17
313.18 K, 9000 kPa, x2 = 0.777	689.32
